Assay results as given in US12281095B2, “Pesticidally active diazine-amide compounds” (SYNGENTA CROP PROTECTION AG, priority 2019, dated 2025).

Columns and labels:
Assay type in all cases: in vivo
[1] = system: Diabrotica balteata (Corn Root Worm); experiment: Example B1: Diabrotica balteata (Corn Root Worm), sprayed maize sprouts; details: 96 h, application rate of 200 ppm, L2 larvae, 4 days after infestation, read-out: control in at least one of the two categories (mortality or growth inhibition)
Procedure: Example B1: Diabrotica balteata (Corn Root Worm)
Maize sprouts placed onto an agar layer in 24-well microtiter plates were treated with aqueous test solutions prepared from 10′000 ppm DMSO stock solutions by spraying. After drying, the plates were infested with L2 larvae (6 to 10 per well). The samples were assessed for mortality and growth inhibition in comparison to untreated samples 4 days after infestation.

[2] = system: Chilo suppressalis (Striped Rice Stemborer); experiment: Example B4: Chilo suppressalis (Striped Rice Stemborer), artificial diet; details: 144 h, application rate of 200 ppm, L2 larvae, 6 days after infestation, read-out: control in at least one of the three categories (mortality, anti-feedant or growth inhibition)
Summary of the method: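 Artificial diet was treated with aqueous dilutions made from 10'000 ppm DMSO stocks, dried, then infested with L2 larvae at 6–8 per well. Mortality, antifeedant effect and growth inhibition were assessed against untreated samples 6 days after infestation.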

[3] = system: Plutella xylostella (Diamond Back Moth); experiment: Example B5: Plutella xylostella (Diamond Back Moth), artificial diet, 24-well; details: 192 h, application rate of 200 ppm, eggs, 8 days after infestation, read-out: control in at least one of the two categories (mortality or growth inhibition)
Procedure: Example B5: Plutella xylostella (Diamond Back Moth)
24-well microtiter plates with artificial diet were treated with aqueous test solutions prepared from 10′000 ppm DMSO stock solutions by pipetting. After drying, Plutella eggs were pipetted through a plastic stencil onto a gel blotting paper and the plate was closed with it. The samples were assessed for mortality and growth inhibition in comparison to untreated samples 8 days after infestation.

[4] = system: Spodoptera littoralis (Egyptian Cotton Leaf Worm); experiment: Example B9: Spodoptera littoralis (Egyptian Cotton Leaf Worm), sprayed cotton leaf discs; details: foliar, 72 h, application rate of 200 ppm, L1 larvae, 3 days after infestation, read-out: control in at least one of the three categories (mortality, anti-feedant or growth inhibition)
[5] = system: Tetranychus urticae (Two-Spotted Spider Mite); experiment: Example B11: Tetranychus urticae (Two-Spotted Spider Mite), sprayed bean leaf discs; details: foliar, 192 h
Procedure: Example B11: Tetranychus urticae (Two-Spotted Spider Mite)
Bean leaf discs on agar in 24-well microtiter plates were sprayed with aqueous test solutions prepared from 10′000 ppm DMSO stock solutions. After drying the leaf discs were infested with a mite population of mixed ages. The samples were assessed for mortality on mixed population (mobile stages) 8 days after infestation.

[6] = system: Plutella xylostella (Diamondback Moth); experiment: Example B13: Plutella xylostella (Diamondback Moth), artificial diet, 96-well; details: 216 h, application rate of 500 ppm, eggs/L1 larvae, 9 days after infestation
Procedure: Example B13: Plutella xylostella (Diamondback Moth)
96-well microtiter plates containing artificial diet were treated with aqueous test solutions, prepared from 10′000 ppm DMSO stock solutions, by a liquid handling robot. After drying, eggs (˜30 per well) were infested onto a netted lid which was suspended above the diet. The eggs hatch and L1 larvae move down to the diet. The samples were assessed for mortality 9 days after infestation.

[7] = system: Euschistus heros (Neotropical Brown Stink Bug); experiment: Example B2: Euschistus heros (Neotropical Brown Stink Bug), sprayed soybean leaves; details: 120 h, application rate of 200 ppm, N2 nymphs, 5 days after infestation, read-out: control in at least one of the two categories (mortality or growth inhibition)
Procedure: Example B2: Euschistus heros (Neotropical Brown Stink Bug)
Soybean leaves on agar in 24-well microtiter plates were sprayed with aqueous test solutions prepared from 10′000 ppm DMSO stock solutions. After drying the leaves were infested with N2 nymphs. The samples were assessed for mortality and growth inhibition in comparison to untreated samples 5 days after infestation.

[8] = system: Myzus persicae (Green Peach Aphid); experiment: Example B6: Myzus persicae (Green Peach Aphid): Feeding/Contact Activity; details: 144 h, application rate of 200 ppm, aphid population of mixed ages, 6 days after infestation
Procedure: Example B6: Myzus persicae (Green Peach Aphid): Feeding/Contact Activity
Sunflower leaf discs were placed onto agar in a 24-well microtiter plate and sprayed with aqueous test solutions prepared from 10′000 ppm DMSO stock solutions. After drying, the leaf discs were infested with an aphid population of mixed ages. The samples were assessed for mortality 6 days after infestation.

[9] = system: Myzus persicae (Green Peach Aphid); experiment: Example B8: Myzus persicae (Green Peach Aphid): Intrinsic Activity; details: 120 h, test rate of 12 ppm, sucrose solution, 5 days after infestation
Excerpt: Example B8: Myzus persicae (Green Peach Aphid): Intrinsic Activity
Test compounds prepared from 10′000 ppm DMSO stock solutions were applied by pipette into 24-well microtiter plates and mixed with sucrose solution. The plates were closed with a stretched Parafilm. A plastic stencil with 24 holes was placed onto the plate and infested pea seedlings were placed directly on the Parafilm. The infested plate was closed with a gel blotting paper and another plastic stencil and then turned upside down. The samples were assessed for mortality 5 days after infestation.

[10] = system: Frankliniella occidentalis (Western Flower Thrips); experiment: Example B3: Frankliniella occidentalis (Western Flower Thrips): Feeding/Contact Activity; details: 168 h, application rate of 200 ppm, population of mixed ages, 7 days after infestation
Procedure: Example B3: Frankliniella occidentalis (Western Flower Thrips): Feeding/Contact Activity
Sunflower leaf discs were placed on agar in 24-well microtiter plates and sprayed with aqueous test solutions prepared from […] stock solutions. After drying the leaf discs were infested with a Frankliniella population of mixed ages. The samples were assessed for mortality 7 days after infestation.

CC(NC(=O)c1cc(C(F)(F)F)nc(C2(C#N)CC2)c1)c1nccnc1-c1ccc(OCC(F)F)cn1 (centres unmarked) [P22, 2-(1-cyanocyclopropyl)-N-[1-[3-[5-(2,2-difluoroethoxy)-2-pyridyl]pyrazin-2-yl]ethyl]-6-(trifluoromethyl)pyridine-4-carboxamide]
≥ 80%: percent control (mortality or growth inhibition) at 200 ppm [1] | percent control (mortality, anti-feedant effect or growth inhibition) at 200 ppm [2] | percent control (mortality or growth inhibition) at 200 ppm [3] | percent control (mortality, anti-feedant effect or growth inhibition) at 200 ppm [4] | mortality at 200 ppm [5] | mortality at 500 ppm [6]

CC(NC(=O)c1cc(C(F)(F)F)cc(C2(C#N)CC2)c1)c1nccnc1-c1ncc(OCC(F)F)cn1 (centres unmarked) [P49, 3-(1-cyanocyclopropyl)-N-[1-[3-[5-(2,2-difluoroethoxy)pyrimidin-2-yl]pyrazin-2-yl]ethyl]-5-(trifluoromethyl)benzamide]
≥ 80%: percent control (mortality or growth inhibition) at 200 ppm [1] | percent control (mortality or growth inhibition) at 200 ppm [7] | percent control (mortality, anti-feedant effect or growth inhibition) at 200 ppm [2] | percent control (mortality or growth inhibition) at 200 ppm [3] | mortality at 200 ppm [8] | mortality at 12 ppm [9] | percent control (mortality, anti-feedant effect or growth inhibition) at 200 ppm [4]

CC(NC(=O)c1cc(C(F)(F)F)cc(C(C)(C)C#N)c1)c1nccnc1-c1ncc(OCC(F)F)cn1 (centres unmarked) [P48, 3-(1-cyano-1-methyl-ethyl)-N-[1-[3-[5-(2,2-difluoroeth-oxy)pyrimidin-2-yl]pyrazin-2-yl]ethyl]-5-(trifluoro-methyl)benzamide]
≥ 80%: percent control (mortality or growth inhibition) at 200 ppm [1] | percent control (mortality or growth inhibition) at 200 ppm [7] | mortality at 200 ppm [10] | percent control (mortality, anti-feedant effect or growth inhibition) at 200 ppm [2] | percent control (mortality or growth inhibition) at 200 ppm [3] | mortality at 12 ppm [9] | percent control (mortality, anti-feedant effect or growth inhibition) at 200 ppm [4]
